We go through one compound from US20250368638A1, “BICYCLIC INHIBITORS OF NICOTINAMIDE […], COMPOSITIONS AND USES THEREOF” (President and Fellows of Harvard College, priority 2021, published 2025).

A short description of series [1]: Metabolic stability in pooled human liver microsomes. As to the method:
A master solution was prepared according to the following table.
40 μL of 10 mM NADPH solution was added to each well. The final concentrations of NADPH was 1 mM. The mixture was pre-warmed at 37° C. for 5 minutes. The negative control samples were prepared by replacing NADPH solutions with 40 μL of ultra-pure H2O. The negative control was used to exclude the misleading factor that resulted from instability of chemical itself. Samples with NADPH were prepared in duplicate. Negative controls were prepared in singlet.
The reaction was started with the addition of 4 μL of 200 μM control compound or test compound solutions. […] Samples were centrifuged at 3, 220 g for 40 minutes. Aliquot of 90 μL of the supernatant was mixed with 90 μL of ultra-pure H2O and then used for LC-MS/MS analysis.
For metabolite standard samples: 1 μL of 400 μM working solution was added to 89 μL master solution following by adding 400 μL of cold acetonitrile with internal standard (IS) (100 nM alprazolam, 200 nM Imipramine, 200 nM labetalol and 2 μM ketoprofen). Then 10 μL of 10 mM NADPH solution or ultra-pure H2O was added to the mixture. Samples were centrifuged at 3,220 g for 40 minutes to precipitate protein. Aliquots of 90 μL supernatant diluted by 90 μL of water was used for LC-MS/MS analysis.

Series [2] is described as follows: Permeability assay in Caco-2 cells. The following applies: human. As to the method:
Preparation of Caco-2 Cells: 50 μL and 25 mL of cell culture medium were added to each well of the Transwell insert and reservoir, respectively. And then the HTS transwell plates were incubated at 37° C., 5% CO2 for 1 hour before cell seeding. […] Cell culture medium was replaced every other day, beginning no later than 24 hours after initial plating.
Preparation of Stock Solutions: The stock solutions of control and test compounds were prepared in DMSO at the concentration of 10 mM. Digoxin, Prazosin and propranolol were used as control compounds in this assay.
Assay Procedures: The Caco-2 plate was removed from the incubator and washed twice with pre-warmed HBSS (10 mM HEPES, pH 7.4), and then incubated at 37° C. for 30 minutes. The stock solutions of controls and Test compounds were diluted in DMSO to get 1 mM solutions and then diluted with HBSS (10 mM HEPES, pH 7.4) to get 5 μM working solutions. The final concentration of DMSO in the incubation system was 0.5%. To determine the rate of drug transport in the apical to basolateral direction. Add 125 μL of the test compounds to the Transwell insert (apical compartment), and transfer 50 μL sample (DO sample) immediately from the apical compartment to a new 96-well plate. Fill the wells in the receiver plate (basolateral compartment) with 235 μL of HBSS (10 mM HEPES, pH 7.4). To determine the rate of drug transport in the basolateral to apical direction. Add 285 μL of the test compounds to the receiver plate wells (basolateral compartment), and transfer 50 μL sample (DO sample) immediately from the basolateral compartment to a new 96-well plate. Fill the Transwell insert (apical compartment) with 75 μL of HBSS (10 mM HEPES, pH 7.4). Time 0 samples were prepared by transferring 50 μL of 5 μM working solution to wells of the 96-deepwell plate, followed by the addition of 200 μL cold acetonitrile containing appropriate internal standards (100 nM alprazolam, 200 nM labetalol, 200 nM caffeine and 200 nM diclofenac). The plates were incubated at 37° C. for 2 hours. […] Samples were vortexed for 5 minutes and then centrifuged at 3,220 g for 40 minutes. An aliquot of 100 μL of the supernatant was mixed with 100 μL of ultra-pure water to use for LC-MS/MS analysis. To determine the Lucifer Yellow leakage after 2 hour transport period, stock solution of Lucifer yellow was prepared in water and diluted with HBSS (10 mM HEPES, pH 7.4) to reach the final concentration of 100 μM. 100 μL of the Lucifer yellow solution was added to each Transwell insert (apical compartment), followed by filling the wells in the receiver plate (basolateral compartment) with 300 μL of HBSS (10 mM HEPES, pH 7.4). The plates were incubated at 37° C. for 30 minutes. 80 μL samples were removed directly from the apical and basolateral wells (using the basolateral access holes) and transferred to wells of new 96 wells plates.

Structures are written as SMILES. Where only a bound is given, the exact number is not on record here.

For the compound `C[C@@H]1Cc2cc(C(N)=O)cnc2N1` [Compound 11, (2R)-2-methyl-2,3-dihydro-1H-pyrrolo[2,3-b]pyridine-5-carboxamide], in series [1] (Human liver microsomes), the “Remaining (%) at 60 minutes” value stood at 97.33%. Moreover, in series [1] (human, microsomes), the CLint scaled at 2 μM is < 6.79 mL/min/kg, the half-life at 2 μM is > 4.26 h and the microsomal CLint at 2 μM was < 5.42 µL/min/mg. Besides, in series [2] (Caco-2, pH 7.4), the Papp A→B at 2 h, 5 μM was 27.5 ×10⁻⁶ cm/s; the Papp B→A at 2 h, 5 μM amounted to 21.8 ×10⁻⁶ cm/s; the efflux ratio at 2 h, 5 μM stood at 0.79. Also, the recovery at 2 h, 5 µM in series [2] (Caco-2, pH 7.4, Recovery (%) AP-BL) worked out at 102%. The compound further registered a recovery at 2 h, 5 µM in series [2] (Caco-2, pH 7.4, Recovery (%) BL-AP) of 106%.
